Results published in patent US20250034147A1, “MDM2 DEGRADERS AND USES THEREOF” (Kymera Therapeutics, Inc., priority 2021, published 2025).

Experiments:
[1] = target: T1, HiBiT-tagged MDM2 (Homo sapiens, UniProt Q00987); assay: MDM2 HiBit HEK293T degradation; type: cell-based; settings: HEK293T cells stably expressing C-terminally HiBiT-tagged MDM2; 4 h; read-out: MDM2 HiBit HEK293T degradation 4 h: Average external-Abs DC50
T1 construct: expressed in transfected cells
How it was run: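 Degradation was measured in HEK293T cells stably expressing C-terminally HiBiT-tagged MDM2, a pool selected with 1 microgram/ml puromycin. A MDM2 tool degrader and HaloPROTAC3 served as positive controls. Potency is reported as DC50 in letter bins.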

[2] = tested on: RS411 cells; assay: Cell Viability CTG Assay; type: cell-based; settings: Homo sapiens, RS4-11, CellTiter Glo (CTG) cell viability, read-out: Average external-IC50
Experimental: Compounds or DMSO 60 nL were stamped to the cell plate as the platemap. RS411 cells were centrifuged at 800 rpm for 5 min, suspended with culture medium, and counted with Countess (Invitrogen). The cell density was adjusted to the recommend information. 30 μL of cell solution (1000 cells/well) was added to the assay plate as the platemap and 30 μL of media was added to column 2 and column 23 as the platemap. The plate was spun down briefly. The final concentration of the compounds started at 10 μM (3 fold dilution and 11 doses) and final DMSO concentration was 0.2%. The plate was spun down briefly and incubated at 37° C., 5% CO2 for 1 day. […] 30 μL CellTiter Glo reagent was added to each well and the plate was centrifuged at 1000 rpm for 30 sec. The plate was shaken for 1 min and centrifuged at 1000 rpm for 30 sec. The plate was incubated at RT for 10 min to stabilize the luminescent signal and the luminescence was read by EnVision.
The letter codes for IC50 indicate the concentration of compound required to affect 50% of cells: A (<0.005 μM), B (0.005-0.05 μM), C (0.05-0.5 μM), and D (>0.5 μM).

T1 sequence (Q00987 whole entry): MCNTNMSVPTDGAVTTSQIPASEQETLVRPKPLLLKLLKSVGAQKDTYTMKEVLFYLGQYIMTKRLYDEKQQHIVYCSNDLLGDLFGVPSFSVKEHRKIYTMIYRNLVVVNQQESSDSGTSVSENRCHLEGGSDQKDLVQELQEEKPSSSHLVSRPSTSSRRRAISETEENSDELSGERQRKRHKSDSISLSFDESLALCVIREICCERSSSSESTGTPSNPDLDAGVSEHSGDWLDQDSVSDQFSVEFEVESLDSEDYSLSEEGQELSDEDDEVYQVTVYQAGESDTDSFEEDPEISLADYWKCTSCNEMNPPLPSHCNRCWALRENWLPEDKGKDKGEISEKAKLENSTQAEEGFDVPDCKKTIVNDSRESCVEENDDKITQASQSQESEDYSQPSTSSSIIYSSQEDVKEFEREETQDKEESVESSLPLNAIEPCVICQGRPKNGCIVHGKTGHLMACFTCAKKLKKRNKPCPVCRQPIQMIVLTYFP

Question: Which results are given for `CN1[C@@H](C(=O)N[C@H]2CC[C@H](CN3CCC4(CC3)CN(CCc3ccc5c(c3)n(C)c(=O)n5C3CCC(=O)NC3=O)C4)CC2)[C@H](c2ccnc(Cl)c2F)[C@]2(C(=O)Nc3cc(Cl)ccc32)C12CCC(C)(C)CC2` (some centres unmarked) [I-43]?
Answer: DC50 [1]: < 0.01 µM; IC50 [2]: < 0.005 µM

Question: Which results are given for `Cc1ccc2c(c1)NC(=O)[C@]21[C@@H](c2cccc(Cl)c2F)[C@H](C(=O)N[C@H]2CC[C@H](C(=O)N3CCC(c4ccc5c(c4)n(C)c(=O)n5C4CCC(=O)NC4=O)CC3)CC2)NC12CCCCC2` (some centres unmarked) [I-81]?
Answer: DC50 [1]: < 0.01 µM; IC50 [2]: < 0.005 µM

Question: Which results are given for `Cn1c(=O)n(C2CCC(=O)NC2=O)c2ccc(C3CN(C[C@H]4CC[C@H](NC(=O)[C@@H]5NC6(CCCCC6)[C@@]6(C(=O)Nc7cc(Cl)ccc76)[C@H]5c5cccc(Cl)c5F)CC4)C3)cc21` (some centres unmarked) [I-24]?
Answer: DC50 [1]: < 0.01 µM; IC50 [2]: < 0.005 µM

Question: `Cn1c(=O)n(C2CCC(=O)NC2=O)c2ccc(CCCN3CCN(C[C@H]4CC[C@H](NC(=O)[C@@H]5NC6(CCCCC6)[C@@]6(C(=O)Nc7cc(Cl)ccc76)[C@H]5c5cccc(Cl)c5F)CC4)C(=O)C3)cc21` (some centres unmarked) [I-54] was tested. Which DC50 [1] did it give?
Answer: < 0.01 µM

Question: And the IC50 [2]?
Answer: 0.005 to 0.05 µM

Question: With `Cn1c(=O)n(C2CCC(=O)NC2=O)c2ccc(CN3CCC(OC4CCN(Cc5ccc(NC(=O)[C@@H]6NC7(CCCCC7)[C@@]7(C(=O)Nc8cc(Cl)ccc87)[C@H]6c6cccc(Cl)c6F)cc5)CC4)CC3)cc21` (some centres unmarked) [I-10] as the compound, how does the DC50 [1] read?
Answer: < 0.01 µM

Question: And the IC50 [2]?
Answer: < 0.005 µM

Question: How did the DC50 [1] turn out when `COc1cc2c(cc1OC(C)C)[C@H](c1ccc(Cl)cc1)N(c1ccc(N(C)C[C@H]3CC[C@H](N4C[C@@H]5C[C@H]4CN5CCc4ccc5c(c4)n(C)c(=O)n5C4CCC(=O)NC4=O)CC3)cc1)C(=O)C2` (some centres unmarked) [I-65] was run?
Answer: 0.01 to 0.1 µM

Question: What about the IC50 [2] of the same compound?
Answer: 0.005 to 0.05 µM

Question: Which results are given for `Cn1c(=O)n(C2CCC(=O)NC2=O)c2ccc(C#CCC3(C(=O)O)CCN(C[C@H]4CC[C@H](NC(=O)[C@@H]5NC6(CCCCC6)[C@@]6(C(=O)Nc7cc(Cl)ccc76)[C@H]5c5cccc(Cl)c5F)CC4)CC3)cc21` (some centres unmarked) [I-8]?
Answer: DC50 [1]: < 0.01 µM; IC50 [2]: 0.005 to 0.05 µM

Question: What does the source list for `CC(C)[C@@H](CS(=O)(=O)C(C)C)N1C(=O)[C@@](C)(CC(=O)N[C@H]2CC[C@H](CN3CCN(CCCc4ccc5c(c4)n(C)c(=O)n5C4CCC(=O)NC4=O)CC3)CC2)C[C@H](c2cccc(Cl)c2)[C@H]1c1ccc(Cl)cc1` (some centres unmarked) [I-64]?
Answer: DC50 [1]: 0.01 to 0.1 µM; IC50 [2]: 0.005 to 0.05 µM

Question: What does the source list for `Cn1c(=O)n(C2CCC(=O)NC2=O)c2ccc(CCCN3CCN(C[C@H]4CC[C@H](NC(=O)[C@@H]5NC6(CCC(C)(C)CC6)[C@@]6(C(=O)Nc7cc(Cl)ccc76)[C@H]5c5cccc(Cl)c5F)CC4)CC3)cc21` (some centres unmarked) [I-72]?
Answer: DC50 [1]: < 0.01 µM; IC50 [2]: < 0.005 µM

Question: Which DC50 [1] does the source give for `Cn1c(=O)n(C2CCC(=O)NC2=O)c2ccc(CN3CCC(NC(=O)[C@@H]4NC5(CCCCC5)[C@@]5(C(=O)Nc6cc(Cl)ccc65)[C@H]4c4cccc(Cl)c4F)CC3)cc21` (some centres unmarked) [I-98] here?
Answer: 0.1 to 1 µM

Question: And the IC50 [2]?
Answer: 0.005 to 0.05 µM

Question: How did the DC50 [1] turn out when `Cn1c(=O)n(C2CCC(=O)NC2=O)c2ccc(C3CCN(C(=O)CCCN4CCC(NC(=O)[C@@H]5NC6(CCCCC6)[C@@]6(C(=O)Nc7cc(Cl)ccc76)[C@H]5c5cccc(Cl)c5F)CC4)CC3)cc21` (some centres unmarked) [I-29] was run?
Answer: 0.01 to 0.1 µM

Question: And the IC50 [2]?
Answer: 0.005 to 0.05 µM

Question: What does the source list for `COc1cc2c(cc1OC(C)C)[C@H](c1ccc(Cl)cc1)N(c1ccc(N(C)CC3CCN(c4ccc5c(c4)n(C)c(=O)n5C4CCC(=O)NC4=O)CC3)cc1)C(=O)C2` (some centres unmarked) [I-62]?
Answer: DC50 [1]: < 0.01 µM; IC50 [2]: 0.005 to 0.05 µM

Question: Which DC50 [1] does the source give for `COc1cc2c(cc1OC(C)C)[C@H](c1ccc(Cl)cc1)N(c1ccc(N(C)C[C@H]3CC[C@H](N4CCN(CCc5cccc6c5n(C)c(=O)n6C5CCC(=O)NC5=O)CC4)CC3)cc1)C(=O)C2` (some centres unmarked) [I-63] here?
Answer: < 0.01 µM

Question: What about the IC50 [2] of the same compound?
Answer: 0.005 to 0.05 µM

Question: `CCCc1ccc2c(c1)NC(=O)[C@]21[C@@H](c2cccc(Cl)c2F)[C@H](C(=O)N[C@H]2CC[C@H](CN3CCC(c4ccc5c(c4)n(C)c(=O)n5C4CCC(=O)NC4=O)CC3)CC2)NC12CCCCC2` (some centres unmarked) [I-79] was tested. Which DC50 [1] did it give?
Answer: < 0.01 µM

Question: And the IC50 [2]?
Answer: > 0.5 µM

Question: What does the source list for `Cn1c(=O)n(C2CCC(=O)NC2=O)c2ccc(C3CCN(C[C@H]4CC[C@H](NC(=O)[C@@H]5NC6(CCC(C)(C)CC6)[C@@]6(C(=O)Nc7cc(Cl)ccc76)[C@H]5c5ccnc(Cl)c5F)CC4)CC3)cc21` (some centres unmarked) [I-25]?
Answer: DC50 [1]: < 0.01 µM; IC50 [2]: < 0.005 µM

Question: Which DC50 [1] does the source give for `Cn1c(=O)n(C2CCC(=O)NC2=O)c2ccc(C3CN(Cc4ccc(NC(=O)[C@@H]5NC6(CCCCC6)[C@@]6(C(=O)Nc7cc(Cl)ccc76)[C@H]5c5cccc(Cl)c5F)cc4)C3)cc21` (some centres unmarked) [I-34] here?
Answer: < 0.01 µM

Question: And the IC50 [2]?
Answer: 0.05 to 0.5 µM
